The source of these data is patent US11446282B2, “Methods of treating mixed dyslipidemia and hypertriglycertdemia” (Kowa Company, Ltd., priority 2017, dated 2022).

The subject of this series is dyslipidemic patients with renal impairment. Kind of series: Example 3 phase III 52-week trial: adverse events and adverse drug reactions. The series is classed as in vivo, human. The method, then: This was a multicenter, single-arm, open-label, phase III trial. The inclusion criteria were as follows: (1) patients with dyslipidemia aged >20 years at the time of informed consent; (2) men and postmenopausal women; (3) fasting serum TG≥1.70 mmol/L (150 mg/dL) at two consecutive measurements during screening; and (4) patients who followed dietary and physical exercise guidance for >12 weeks before enrollment.
During the screening period (8 weeks prior to treatment initiation), tests were performed twice to determine patient eligibility. Thereafter, eligible patients orally received pemafibrate 0.2 mg/day (twice daily) for 52 weeks. From week 12 of the treatment period onwards, the investigators were instructed that the dose could be increased from 0.2 mg/day to 0.4 mg/day (twice daily) if there was an inadequate response to the initial dose based on fasting serum TG levels ≥1.70 mmol/L (150 mg/dL). Fasting blood and urine samples were collected at each visit. Blood and urine sample in patients with hemodialysis were collected just before dialysis. LDL-C levels were measured using the direct method. Lipoprotein fractions were measured by HPLC at baseline and weeks 12 and 40.
The primary efficacy endpoint was the percent change in fasting serum TG from baseline to the last evaluation point. The primary safety endpoints were the incidence of an AE or ADR occurring after drug administration during the study. Secondary efficacy endpoints included percent changes in lipid variables and changes in inflammation variables at week 52 [using the last-observation-carried-forward (LOCF)]. Secondary safety endpoints included changes in the levels of aspartate aminotransferase (AST), ALT, -GT, ALP, serum creatinine, eGFR, and CK at week 52. […]
The numbers of patients with AEs and ADRs and the incidences of AEs and ADRs were calculated in the analysis of primary safety endpoints. […] The secondary safety endpoints were analyzed with Wilcoxon signed-rank tests. […] Where indicated, the data are expressed as means±standard deviation (SD).

As to `CC[C@@H](Oc1cccc(CN(CCCOc2ccc(OC)cc2)c2nc3ccccc3o2)c1)C(=O)O` [Pemafibrate, (2R)-2-[3-({1,3-benzoxazol-2-yl[3-(4-methoxyphenoxy)propyl]amino}methyl)phenoxy]butanoic acid], for the setting “0.2 (0.4) mg/day, 52 weeks”, the “incidence of adverse drug reactions” value amounted to 31.7% and the “incidence of adverse events” value is given as 82.0%. Further, the “association of adverse event and adverse drug reaction incidences with baseline eGFR” value (in vivo) is “not associated”.
